Measurements as given in US20200319163A1, “METHODS AND COMPOSITIONS OVERCOMING CANCER CELL IMMUNE RESISTANCE” (Georgetown University, priority 2019, published 2020).

Tested on: ADCCR1 cells
Test: ADCC assay (specific lysis by NK92-CD16V effector cells) on ADCC-resistant cells
Type: cell-based, human
Conditions: ADCCR1 pretreated with inhibitor 0.01 to 10 μmol/L for 2 hours; ADCC assay at 4 hours; FIG. 4B, 4C
From the text: Inhibitors of histone acetyltransferase C646 (cat. no. S7152), DNA methyltransferase azacytidine (cat. no. S1782), histone demethylase GSK J4 HCL (cat. no. S7070), and HDAC panobinostat (cat. no. S1030) were purchased from Selleck Chemicals. Inhibitors were solubilized in DMSO at […]. Vehicle treatment (DMSO) was used at the highest equivalent v/v used in inhibitor treatments.
ADCC assays were preformed using A431/ADCCS1/ADCCR1 as target cells and NK92-CD16V cells as the effector cells. Target cells are plated at 10,000 cells/well overnight (A431 cells double overnight).

## CC1=NN(c2ccc(C(=O)O)cc2)C(=O)/C1=C\c1ccc(-c2cc(C)c(C)cc2[N+](=O)[O-])o1 [C646]
  ADCC resistance / resensitization to ADCC (specific lysis): partially reversed
